Laboratory results from PubChem BioAssay (NCI).
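1) Cells in 96-well plates. 2) Compound, 48 h, 5 concentrations. 3) Linear interpolation between surrounding doses. 4) Unreached endpoint = highest concentration. Definition used: TGI = concentration required for complete inhibition of growth.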 Where a SMILES comes first, the peptide text is derived from it. The star is where a group is joined. Boc = CC(C)(C)OC(=O)*; OSu = O=C1CCC(=O)N1O*

Tests used:
Assay in all cases: NCI tumour cell line growth inhibition, 48 h
[1] = tested on: HL-60(TB) leukemia
[2] = tested on: OVCAR-8 ovarian
[3] = tested on: BT-549 breast
[4] = tested on: HCC-2998 colon
[5] = tested on: COLO 205 colon
[6] = tested on: CCRF-CEM leukemia
[7] = tested on: SK-MEL-28 melanoma
[8] = tested on: KM12 colon
[9] = tested on: SN12C renal
[10] = tested on: SK-MEL-2 melanoma
[11] = tested on: RPMI-8226 leukemia
[12] = tested on: UACC-62 melanoma
[13] = tested on: SK-MEL-5 melanoma
[14] = tested on: NCI-H460 lung
[15] = tested on: A549 NSCLC
[16] = tested on: K-562 leukemia
[17] = tested on: SNB-19 CNS
[18] = tested on: HCT-15 colon
[19] = tested on: OVCAR-5 ovarian
[20] = tested on: UO-31 renal
[21] = tested on: SNB-75 CNS
[22] = tested on: MCF7 breast
[23] = tested on: SW-620 colon
[24] = tested on: T-47D breast
[25] = tested on: MALME-3M melanoma
[26] = tested on: NCI-H23 lung
[27] = tested on: UACC-257 melanoma
[28] = tested on: HT29 colon
[29] = tested on: HS 578T breast
[30] = tested on: PC-3 prostate
[31] = tested on: ACHN renal
[32] = tested on: RXF 393 renal
[33] = tested on: TK-10 renal
[34] = tested on: 786-0 renal
[35] = tested on: HCT-116 colon
[36] = tested on: IGROV1 ovarian
[37] = tested on: EKVX NSCLC
[38] = tested on: MOLT-4 leukemia
[39] = tested on: HOP-62 NSCLC
[40] = tested on: MDA-N
[41] = tested on: U251 CNS
[42] = tested on: A498 renal
[43] = tested on: NCI-H226 lung
[44] = tested on: MDA-MB-231 breast
[45] = tested on: M14 melanoma
[46] = tested on: SR leukemia
[47] = tested on: HOP-92 NSCLC

Measured: TGI

CC(C)(C)OC(=O)NC(Cc1ccc(O)cc1)C(=O)NC(CCCCN)C(=O)NC(Cc1ccc(O)cc1)C(=O)NC(CCCCN)C(=O)ON1C(=O)CCC1=O (configuration not stated) (Boc-YKYK-OSu; configuration not given here)
> 100 µM: all assays above
